From US6525079B2, “Anti-parasitic heterocycle compounds, agents, formulations, and methods of use thereof” (Pfizer Inc., priority 1998, dated 2003)

What was measured:
[1] = tested on: Boophilus microplus larvae; test: Test for acaricidal activity: treated filter paper envelope, larval mortality; format: in vivo; conditions: Rhipicephalus microplus, larvae exposed 48 hours at 25° C.; for mortality at 0.5 µg/cm2: dosage 0.5 μg/cm^2 on filter paper
Description: Test for Acaricidal Activity
A dose of 10 μg/cm^2 is created by evenly pipetting 0.5 ml of a 1 mg/ml solution of the test compound in a suitable solvent such as acetone or ethanol onto a Whatman No. 1 (Trade Mark) filter paper cut to a size of 8×6.25 cm. When dry, the paper is folded in half, sealed on two sides using a crimping device and placed in a Kilner jar containing a cotton wool pad dampened with water. The jar is then sealed and placed at 25° C. for 24 hours. Next, approximately 50 Boophilus microplus larvae are introduced into the treated paper envelope which is then crimped along the third side to effect a complete seal. The paper envelope is returned to the Kilner jar, which is sealed and placed at 25° C. for a further 48 hours. The papers are then removed and mortality assessed. Negative controls are provided by treating an appropriately cut filter paper with 0.5 ml of solvent only and following the same procedure. Activity at other doses is obtained by varying the concentration of the test solution. The table below illustrates the in vivo activity of a selection of the compounds of the invention against Boophilus microplus larvae. Dosages are expressed in μg/cm^2.

[2] = tested on: Adult flies (Stomoxys calcitrans); test: Test for insecticidal activity: topical application to adult flies, mortality after 24 hours; format: in vivo; conditions: 1 μl acetone solution applied to thorax of fly; mortality assessed 24 hours after dosing
Description: Test for Insecticidal Activity Adult flies (Stomoxys calcitrans) are collected and anaesthetized using CO2- 1 μl of an acetone solution containing the test substance is applied directly to the thorax of the fly. The flies are then placed carefully into a 50 ml tube covered with damp gauze to recover from the CO2. Negative controls have 1 μl of acetone dispensed onto them. Mortality is assessed 24 hours after dosing. The table below illustrates the in vivo activity of a selection of the substances of the invention against such flies. Dosages required to produce 100% mortality are expressed in μg/fly.

Structure (SMILES) | mortality at 0.5 µg/cm2 [1] | Dosage required to produce 100% mortality [2] | mortality at 1 µg/cm2 ([1]; dosage 1 μg/cm^2 on filter paper)
FC(F)(F)c1cc(Cl)c(-n2cc(C3CC3(Br)Br)nn2)c(Cl)c1 (centres unmarked) [Example 1, 4-(2,2-Dibromocyclopropyl)-1-(2,6-dichloro-4-trifluoromethylphenyl)-1,2,3-triazole] | 90% | 0.005 μg/fly | 
FC(F)(F)c1cc(Cl)c(-n2cc(C3CC3(Cl)Cl)nn2)c(Cl)c1 (centres unmarked) [Example 2, 4-(2,2-Dichlorocyclopropyl)-1-(2,6-dichloro-4-trifluoromethylphenyl)-1,2,3-triazole] |  | 0.01 μg/fly | 100%
N#Cc1cn(-c2c(Cl)cc(C(F)(F)F)cc2Cl)cc1C1CC1(Br)Br (centres unmarked) [Example 3, 3-Cyano-4-(2,2-dibromocyclopropyl)-1-(2,6-dichloro-4-trifluoromethylphenyl)pyrrole] | 100% | 0.005 μg/fly | 
FC(F)(F)c1cc(Cl)c(-n2cc(C3CC3(Br)Br)c3ccccc32)c(Cl)c1 (centres unmarked) [Example 4, 3-(2,2-Dibromocyclopropyl)-1-(2,6-dichloro-4-trifluoromethylphenyl)indole] |  | 0.05 μg/fly | 
FC(F)(F)c1cc(Cl)c(-n2cnc(C3CC3(Br)Br)n2)c(Cl)c1 (centres unmarked) [Example 6, 3-(2,2-Dibromocyclopropyl)-1-(2,6-dichloro-4-trifluoromethylphenyl)-1,2,4-triazole] |  | 0.01 μg/fly | 
